This passage reports IC50 results from patent US12331040B2 (Karyopharm Therapeutics Inc., priority 2013, dated 2025).

What all share (experiment): MTT cell proliferation assay
Common to all, as to type: cell-based

The test system of one assay is 3T3 cells. To be noted: Mus musculus, NIH3T3, approximately 64-72 hours incubation. A digest of the protocol: (§1)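 5,000-10,000 cells/well, overnight attach; 8 conc., 1 nM–30 μM; MTT ~4 h; formazan solubilized, OD 490 nm; % inhibition = (1−(ODo/OD))×100 vs neg. control; mostly duplicate, mean±SE.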
The next assay has as its system MS751 cells. To be noted: Homo sapiens, MS751, MS751 cells, approximately 64-72 hours incubation. A digest of the protocol: as §1
A further assay has as its system Z138 cells. To be noted: Homo sapiens, Z-138, Z138 cells, approximately 64-72 hours incubation. A digest of the protocol:
as §1

The mark [1] stands for this setting: read-out: MTT Assay IC50 MS-751.
Setting [2] is: read-out: MTT Assay IC50, MS-751.
Where [3] appears, read: read-out: MTT Assay IC50, Z-138.

Where two headings read alike, the source gives them in different places.

Regarding `CN(C)c1ccc(/C=C/C(=O)NCc2cc3cc(-c4ccc(C(=O)N5CCOCC5)cc4)cc(Cl)c3o2)cn1` [Compound 551, (E)-N-((7-Chloro-5-(4-(morpholine-4-carbonyl)phenyl)benzofuran-2-yl)methyl)-3-(6-(dimethylamino)pyridin-3-yl)acrylamide], the IC50 in the assay with 3T3 cells (read-out: MTT Assay IC50 3T3), in the assay with MS751 cells (setting [1]) and with Z138 cells (read-out: MTT Assay IC50 Z-138) was more than 10 µM in each case.
For `CC(c1ccc(-c2cc(-c3ccc(F)cc3)c3oc(CNC(=O)/C=C/c4ccc(N)nc4)cc3c2)cc1)N1CCC(F)(F)CC1` (stereo not drawn) [Compound 760, (E)-3-(6-aminopyridin-3-yl)-N-((5-(4-(1-(4,4-difluoropiperidin-1-yl)ethyl)phenyl)-7-(4-fluorophenyl)benzofuran-2-yl)methyl)acrylamide], the IC50 was more than 10 µM in the assay with 3T3 cells (read-out: MTT Assay IC50, 3T3); 0.1 to 5 µM in the assay on MS751 cells (setting [2]); 0.1 to 5 µM in the assay with Z138 cells (setting [3]).
For the compound `Nc1ccc(/C=C/C(=O)NCc2cc3cc(-c4ccc(C(=O)N5CC[C@H](Cl)C5)cc4)cc(C(F)(F)F)c3o2)cn1` [Compound 610, (S,E)-3-(6-aminopyridin-3-yl)-N-((5-(4-(3-chloropyrrolidine-1-carbonyl)phenyl)-7-(trifluoromethyl)benzofuran-2-yl)methyl)acrylamide], the figures for the IC50 in the assay on 3T3 cells (read-out: MTT Assay IC50 3T3), in the assay on MS751 cells (setting [1]) and in the assay on Z138 cells (read-out: MTT Assay IC50 Z-138) were more than 10 µM, 0.1 to 5 µM and 0.1 to 5 µM, respectively.
Regarding `Nc1ccc(/C=C/C(=O)NCc2cc3cc(-c4ccc(C(=O)N5CCC(F)(F)CC5)cc4)cc(-c4ccc(F)nc4F)c3o2)cn1` [Compound 754, (E)-3-(6-aminopyridin-3-yl)-N-((5-(4-(4,4-difluoropiperidine-1-carbonyl)phenyl)-7-(2,6-difluoropyridin-3-yl)benzofuran-2-yl)methyl)acrylamide], the IC50 was 0.1 to 5 µM with 3T3 cells (read-out: MTT Assay IC50, 3T3); less than 0.1 µM in the assay with MS751 cells (setting [2]); less than 0.1 µM in the assay on Z138 cells (setting [3]).
In the case of `Nc1ccc(/C=C/C(=O)NCc2cc3cc(-c4ccc(CC(=O)N5CCOCC5)cc4)cc(Cl)c3o2)cn1` [Compound 553, (E)-3-(6-Aminopyridin-3-yl)-N-((7-chloro-5-(4-(2-morpholino-2-oxoethyl)phenyl)benzofuran-2-yl)methyl)acrylamide], the values for the IC50 with 3T3 cells (read-out: MTT Assay IC50 3T3), in the assay on MS751 cells (setting [1]) and in the assay with Z138 cells (read-out: MTT Assay IC50 Z-138) were more than 10 µM, 0.1 to 5 µM and 0.1 to 5 µM, respectively.
Take `O=C(/C=C/c1cccnc1)NCc1cc2cc(-c3ccc(C(=O)N4CCC(F)(F)CC4)cn3)cc(-c3ccncc3)c2o1` [Compound 674]: the IC50 in the assay on 3T3 cells (read-out: MTT Assay IC50, 3T3) was less than 0.1 µM; in the assay on MS751 cells (setting [2]), less than 0.1 µM; in the assay with Z138 cells (setting [3]), less than 0.1 µM.
For `Nc1ccc(/C=C/C(=O)NCc2cc3cc(-c4ccc(C(=O)N5CCCOCC5)cc4)cc(C(F)(F)F)c3o2)cn1` [Compound 574, (E)-N-((5-(4-(1,4-oxazepane-4-carbonyl)phenyl)-7-(trifluoromethyl)benzofuran-2-yl)methyl)-3-(6-aminopyridin-3-yl)acrylamide], the results for the IC50 with 3T3 cells (read-out: MTT Assay IC50 3T3), in the assay with MS751 cells (setting [1]) and in the assay on Z138 cells (read-out: MTT Assay IC50 Z-138) were more than 10 µM, 0.1 to 5 µM and 0.1 to 5 µM, respectively.
Turning to `N#Cc1cccc(-c2cc(-c3ccc(C(=O)N4CCC(F)(F)CC4)cc3)cc3cc(CNC(=O)/C=C/c4ccc(N)nc4)oc23)c1` [Compound 732, (E)-3-(6-aminopyridin-3-yl)-N-((7-(3-cyanophenyl)-5-(4-(4,4-difluoropiperidine-1-carbonyl)phenyl)benzofuran-2-yl)methyl)acrylamide], the IC50 was 0.1 to 5 µM in the assay on 3T3 cells (read-out: MTT Assay IC50, 3T3); less than 0.1 µM with MS751 cells (setting [2]); less than 0.1 µM in the assay on Z138 cells (setting [3]).
As for `CC1(C)CN(S(=O)(=O)c2ccc(-c3cc(Cl)c4oc(CNC(=O)/C=C/c5ccc(N)nc5)cc4c3)cc2)C1` [Compound 555, (E)-3-(6-aminopyridin-3-yl)-N-((7-chloro-5-(4-(3,3-dimethylazetidin-1-ylsulfonyl)phenyl)benzofuran-2-yl)methyl)acrylamide], the figures for the IC50 with 3T3 cells (read-out: MTT Assay IC50 3T3), with MS751 cells (setting [1]) and in the assay with Z138 cells (read-out: MTT Assay IC50 Z-138) were more than 10 µM, 0.1 to 5 µM and 0.1 to 5 µM, respectively.
Consider `COc1cc(-c2ccc(C(=O)N3CCOCC3)cc2)cc2cc(CNC(=O)/C=C/c3ccc(N)nc3)oc12` [Compound 592, (E)-3-(6-aminopyridin-3-yl)-N-((7-methoxy-5-(4-(morpholine-4-carbonyl)phenyl)benzofuran-2-yl)methyl)acrylamide], for which the results for the IC50 in the assay with 3T3 cells (read-out: MTT Assay IC50 3T3), with MS751 cells (setting [1]) and in the assay with Z138 cells (read-out: MTT Assay IC50 Z-138) were more than 10 µM, 0.1 to 5 µM and less than 0.1 µM, respectively.
For `Nc1ccc(/C=C/C(=O)NCc2cc3cc(-c4ccc(C(=O)N5CCC(F)CC5)cc4)cc(C(F)(F)F)c3o2)cn1` [Compound 567, (E)-3-(6-aminopyridin-3-yl)-N-((5-(4-(4-fluoropiperidine-1-carbonyl)phenyl)-7-(trifluoromethyl)benzofuran-2-yl)methyl)acrylamide], in that order: more than 10 µM, 0.1 to 5 µM and 0.1 to 5 µM.
With `Nc1ccc(/C=C/C(=O)NCc2cc3cc(-c4ccc(C(=O)N5CCC(F)(F)CC5)cc4F)cc(-c4cccnc4)c3o2)cn1` [Compound 748, (E)-3-(6-aminopyridin-3-yl)-N-((5-(4-(4,4-difluoropiperidine-1-carbonyl)-2-fluorophenyl)-7-(pyridin-3-yl)benzofuran-2-yl)methyl)acrylamide], the IC50 with 3T3 cells (read-out: MTT Assay IC50, 3T3) was 0.1 to 5 µM; with MS751 cells (setting [2]), less than 0.1 µM; in the assay with Z138 cells (setting [3]) it was less than 0.1 µM.
For the compound `Nc1ccc(/C=C/C(=O)NCc2cc3cc(-c4ccc(C(=O)N5CCC(F)(F)CC5)cn4)cc(-c4nnco4)c3o2)cn1` [Compound 662, (E)-3-(6-aminopyridin-3-yl)-N-((5-(5-(4,4-difluoropiperidine-1-carbonyl)pyridin-2-yl)-7-(1,3,4-oxadiazol-2-yl)benzofuran-2-yl)methyl)acrylamide], the IC50 with 3T3 cells (read-out: MTT Assay IC50, 3T3) is more than 10 µM; in the assay with MS751 cells (setting [2]), 0.1 to 5 µM; with Z138 cells (setting [3]) it was 0.1 to 5 µM.
Regarding `Nc1ccc(/C=C/C(=O)NCc2cc3cc(-c4ccc(F)c(S(=O)(=O)N5CCOCC5)c4)cc(Cl)c3o2)cn1` [Compound 636, (E)-3-(6-aminopyridin-3-yl)-N-((7-chloro-5-(4-fluoro-3-(morpholinosulfonyl)phenyl)benzofuran-2-yl)methyl)acrylamide], the IC50 was more than 10 µM with 3T3 cells (read-out: MTT Assay IC50 3T3), 0.1 to 5 µM with MS751 cells (setting [1]) and 0.1 to 5 µM in the assay on Z138 cells (read-out: MTT Assay IC50 Z-138).
Take `Nc1ccc(/C=C/C(=O)NCc2cc3cc(-c4cnc(C(=O)N5CCOCC5)c(F)c4)cc(Cl)c3o2)cn1` [Compound 544, (E)-3-(6-aminopyridin-3-yl)-N-((7-chloro-5-(5-fluoro-6-(morpholine-4-carbonyl)pyridin-3-yl)benzofuran-2-yl)methyl)acrylamide]: the IC50 with 3T3 cells (read-out: MTT Assay IC50 3T3) was more than 10 µM; in the assay on MS751 cells (setting [1]), 0.1 to 5 µM; in the assay on Z138 cells (read-out: MTT Assay IC50 Z-138), 0.1 to 5 µM.
`CN1CCN(C(=O)c2cnc(-c3cc(Cl)c4oc(CNC(=O)/C=C/c5ccc(N)nc5)cc4c3)nc2)CC1` [Compound 586]: the IC50 is more than 10 µM in the assay with 3T3 cells (read-out: MTT Assay IC50 3T3), 0.1 to 5 µM in the assay on MS751 cells (setting [1]) and 0.1 to 5 µM in the assay with Z138 cells (read-out: MTT Assay IC50 Z-138).
With `CCS(=O)(=O)c1ccc(-c2cc(-c3ccc(F)cc3)c3oc(CNC(=O)/C=C/c4ccc(N)nc4)cc3c2)cc1` [Compound 709, (E)-3-(6-aminopyridin-3-yl)-N-((5-(4-(ethylsulfonyl)phenyl)-7-(4-fluorophenyl)benzofuran-2-yl)methyl)acrylamide], the IC50 is more than 10 µM with 3T3 cells (read-out: MTT Assay IC50, 3T3); less than 0.1 µM with MS751 cells (setting [2]); less than 0.1 µM in the assay with Z138 cells (setting [3]).
